Measured values: patent publication US5041542A, “Substituted pyrimido[5,4-d]pyrimidine nucleosides” (Nucleic Acid Research Institute, priority 1988, dated 1991)
Converted amounts (≈) assume the structure as drawn. Where two headings read alike, the source gives them in different places.

Legend:
physchem = settings: water
L1210 cells = test: In vitro cytotoxicity, L1210; format: cell-based, murine; settings: Mus musculus, L1210, 72 h; 3 days, 37° C., MTT; read-out: Antitumor (ID50) L1210
Protocol: (§1) ^b (ID50) inhibitory dose is the μM concentration of the
(§2) In vitro cytotoxicity analysis was performed by using the following cell lines: L1210 (a murine leukemia), WI-L2 (a human B-lymphoblast), and LoVo/L (a human colon carcinoma). Cells were grown in RPMI 1640 medium supplemented with 10% fetal bovine serum, 20 mM HEPES, pH 7.4, and 2 mM glutamine. The cytotoxicity determinations were carried out in 96-well microtiter dishes containing a starting number of 5-10×10^3 cells per well and 0.1-100 μM concentrations of the compounds in triplicate wells. L1210 and WI-L2 were incubated with the compounds at 37° C. for 3 days, while Lovo/L was incubated for 5 days. After this time period, 25 μL of 4 mg/mL 3-(4,5-dimethylthiazol-2-yl)-2,5-diphenyltetrazolium bromide was added to each well and incubation was continued for 2 to 5 h. The formazan product was dissolved in isopropanol containing 0.04M HCl and the absorbance was determined with a microtiter plate reader. The absorbance was proportional to the number of cells.

[1] = Lethal toxicity in treated mice; settings: i.p., maximum soluble dosage
L1210 = test: In vivo antitumor activity against L1210 in BDF1 mice; settings: qd; for T/C: day 1, at maximum soluble dosage
Protocol: Compounds 8, 11, 14 and 17 were comparatively evaluated in vivo for efficacy against L1210 in BDF1 mice.
Mice were inoculated i.p. with 1×10^6 L1210 cells 24 hr before qd, day 1, i.p. drug delivery. Drugs were solubilized in water and delivered at the rate of 0.01 ml/g mouse weight. Then control mice/drug were injected i.p. with equivalent volumes of a 0.9% solution of NaCl, the means and standard deviations reflecting the postinoculation life spans of these mice ranged from 6.30±0.48 to 6.60±0.97 days.

[2] = system: Herpes 2, parainfluenza 3 and Vaccinia; format: cell-based; settings: tested in parallel with ARPP (8)
[3] = system: herpes simplex virus type 2 (MS strain); test: In vitro antiviral activity, herpes simplex virus type 2 (virus rating); format: cell-based; settings: Vero cells; VR >1.0 marked, 0.5 to 0.9 moderate, <0.5 weak or no activity
[4] = system: parainfluenza 3 (C243 strain); test: In vitro antiviral activity, parainfluenza 3 (virus rating); format: cell-based; settings: Vero cells; VR >1.0 marked, 0.5 to 0.9 moderate, <0.5 weak or no activity
WI-L2 cells = test: In vitro cytotoxicity, WI-L2; format: cell-based; settings: Homo sapiens, WIL2, 72 h; 3 days, 37° C., MTT; read-out: Antitumor (ID50) WI-L2
Protocol: as §1, §2

LoVo/L cells = test: In vitro cytotoxicity, LoVo/L; format: cell-based; settings: Homo sapiens, 120 h, 5 days, 37° C., MTT, read-out: Antitumor (ID50) LoVo/L
Protocol: as §1, §2

[5] = delivered at 0.01 ml/g mouse weight
[6] = system: vaccinia virus (Elstree strain); format: cell-based; settings: HeLa cells; VR >1.0 marked, 0.5 to 0.9 moderate, <0.5 weak or no activity
[7] = system: pyrimidine (CTP + UTP) and purine (ATP + GTP) nucleoside triphosphates; test: 14C-bicarbonate incorporation into acid soluble pyrimidine and purine nucleoside triphosphates; format: cell-based
Text: Comparative effect of compounds on ^14 C-bicarbonate
incorporation into acid soluble pyrimidine (PyrTP,
CTP + UTP) and purine (PurTP, ATP + GTP) nucleoside

[8] = system: de novo purine biosynthesis in WI-L2 cells; test: Inhibition of de novo purine biosynthesis ([14C]formate incorporation); format: cell-based, human; settings: for activity at 50 µM: pre-incubation 8 h
Protocol: Compounds of the invention were also tested for certain biochemical properties. Compounds of the invention were studied for their effect on de novo purine biosynthesis by observing inhibition of incorporation of [^14 C]formate into the acid-soluble fraction of WI-L2 cells (see Table 3). […] However, 8 and 14 (100 μM) were not cytotoxic to WI-L2 cells deficient in adenosine kinase activity.
A normal lymphoblast phenotype B cell line, WI-L2 was used. The enzyme-deficient cell lines used in vitro are: HPRT-, a hypoxanthine-guanine phosphorbosyl transferase (EC 2.4.2.8)deficient line and AK-, an adenosine kinase (EC 2.7.1.20)deficient line. Cells were cultured in RPMI 1640 medium containing 5% dialyzed fetal bovine serum, 20 mM Na HEPES, pH 7.5 and 2 mM glutamine and maintained in log phase growth between 0.5 and 12×10^5 cells/mL. The mutant cell lines were periodically reselected by treatment with 6-thioguanine (HPRT-) or tubercidin (AK-).
(§3) . Inhibition of de novo purine biosynthesis: WI-L2 or adenosine kinase-deficient cells were preincubated at 37° C. with drug for various time periods prior to labeling with [^14 C]formate. Enzyme Assays: Adenosine kinase inhibition studies were accomplished by the filter binding assay method. Inhibition studies were done at 37° C. with an assay mixture containing 4 mM ATP, 1.5 mM MgCl2, 5 or 10 μM [8-^14 C] adenosine (50 mCi/mmol) and 100 mM Tris-maleate, pH 5.5. To prevent the enzymatic breakdown of adenosine, erythro-9-(2-hydroxy-3-nonyl)adenine (EHNA) was added to the cell-free WI-L2 lysate to give 5 μM final assay concentration. The assay was started by the addition of protein. The amount of enzyme, time of assay and sampling volume were adjusted to give acceptable conversion of [8-^14 C] adenosine to [8-^14 C]AMP. Each DE-81 filter was spotted with a constant sampling volume and immersed in H 2 O (4 L) to terminate the reaction. Filters were washed three times with H2 O (4 L) and once with EtOH (100 mL). Dry filters were placed in scintillation vials and radioactivity was counted with 10 mL toluene-based scintillation cocktail.
De novo purine biosynthesis was measured by the incorporation of ^14 C-formate into cellular purine nucleotides or excreted purines after pre-incubation with compound.

[9] = Anomerization in aqueous solution (reverse-phase HPLC); format: physicochemical
Protocol: This would be expected where the rate of anomerization is slow compared to the rate of deamination.
The compounds of the invention are capable of crossing the cell membrane, and activated to the 5'-phosphate, thus causing the inhibition of the de novo purine biosynthesis.
as §3, with “HPLC Analysis: Sample components were separated with an LKB model 2150 gradient HPLC system at ambient temperature on an Altex Ultrashere-ODS reverse phase column (Beckman) developed with a linear gradient of buffer A (10 mM KPO4 ', pH 3.83) to 20% component B (60% aqueous CH3 CN) at a combined flow rate of 1.0 mL/min over 15 min. Ultraviolet (UV) absorbance was monitored with an LKB model 2140 diode array detector. Inhibition of” for “. Inhibition of”

[10] = read-out: PurTP, % control, 50.0 μM
[11] = read-out: PydTP, % control, 50.0 μM
[12] = Homo sapiens, WIL2, cell, read-out: de novo purine biosynthesis, % of control, cell, 50 μM
[13] = Homo sapiens, WIL2, media (excreted purines), read-out: de novo purine biosynthesis, % of control, media, 50 μM

SMILES	solubility (physchem) [µg/mL]	IC50 (L1210 cells) [nM]	T/C (L1210)	Antiviral activity in cell culture [2]	Antiviral (VR) HSV2 [3] [VR]	Antiviral (VR) PI3 [4] [VR]	IC50 (WI-L2 cells) [nM]	IC50 (LoVo/L cells) [nM]	Maximum watersoluble dosage [5] [mg/kg/inj.]	Antiviral (VR) VV [6] [VR]	PurTP, 50.0 μM [7] [cpm/10^6 cells]	PyrTP, 50.0 μM [7] [cpm/10^6 cells]	CAA (carbamyl aspartate), 50.0 μM ([7]; zero = undetectable) [cpm/10^6 cells]	activity at 50 µM [7, 10] [%]	activity at 50 µM [7, 11] [%]	activity at 50 µM [8, 12] [%]	activity at 50 µM [8, 13] [%]	also measured
Nc1ncnc2c(N[C@H]3O[C@H](CO)[C@@H](O)[C@H]3O)ncnc12 [Compound 11, 4-Amino-8-(α-D-ribofuranosylamino)pyrimido[5,4-d]pyrimidine]	2200 (≈ 7.48 mM)	380	138	antiviral activity	0.2	1.4	250	1000	22	1.0								lethal toxicity at maximum soluble dosage [1]: Neither drug was lethally toxic at its maximum soluble dosage; Postinoculation Lifespan (% T/C), 22 mg/kg/inj. (L1210; 22 mg/kg/inj. i.p., day 1): 138 % T/C
O=c1[nH]cnc2c(N[C@@H]3O[C@H](CO)[C@@H](O)[C@H]3O)ncnc12 [Compound 21, 8-(β-D-Ribofuranosylamino)pyrimido[5,4-d]pyrimidin-4(3H)-one]											54484	15691	0	91.5	72.3	98.2	106	anomeric equilibration in solution [9]: equilibrated from pure β-anomer into a mixture of α- and β-anomers
Nc1ncnc2c(N[C@@H]3O[C@H](CO)[C@@H](O)[C@H]3O)nc(Cl)nc12 [Compound 37, 4-Amino-6-chloro-8-(β-D-ribofuranosylamino)pyrimido[5,4-d]pyrimidine]																16.4	43.4	PurTP, 15.0 μM ([7]; 15.0 μM): 39833 cpm/10^6 cells; PyrTP, 15.0 μM ([7]; 15.0 μM): 13454 cpm/10^6 cells; CAA (carbamyl aspartate), 15.0 μM ([7]; 15.0 μM, zero = undetectable): 0 cpm/10^6 cells; activity at 15 µM ([7]; read-out: PurTP, % control, 15.0 μM): 66.9%; activity at 15 µM ([7]; read-out: PydTP, % control, 15.0 μM): 62%
Nc1nc(N[C@@H]2O[C@H](CO)[C@@H](O)[C@H]2O)c2ncnc(N)c2n1 [Compound 35, 4,6-Diamino-8-(β -D-ribofuranosylamino)pyrimido[5,4-d]pyrimidine]											58130	15267	0	97.7	70.4	91.2	89.8	
CN(C)c1ncnc2c(N[C@@H]3O[C@H](CO)[C@@H](O)[C@H]3O)ncnc12 [Compound 27, 4-Dimethylamino-8-(β-D-ribofuranosylamino)pyrimido[5,4-d]pyrimidine]											40581	10177	0	68.2	46.9	50.7	85.8	
COc1ncnc2c(N[C@H]3O[C@H](CO)[C@@H](O)[C@H]3O)ncnc12 [Compound 17, 4-Methoxy-8-(α-D-ribofuranosylamino)pyrimido[5,4-d]pyrimidine]	3700 (≈ 12 mM)	2900	116	antiviral activity	0.1	0.7	2500	18700	37	0.9								Postinoculation Lifespan (% T/C), 37 mg/kg/inj. (L1210; 37 mg/kg/inj. i.p., day 1): 116 % T/C; purine de novo assay, short term ([8]; 4 h): inactive; activity at 25 µM ([8]; Homo sapiens, WIL2, cell, 25 μM, pre-incubation 4 h, read-out: de novo purine biosynthesis, % of control, cell, 25 μM): 98.2%; purine de novo assay, longer incubation times ([8]; separate assays, longer incubation times): demonstrated the inhibitory activity
